According to the supplement of paper PMC6045584:
± gives the standard deviation of the averaged measurements.

Experiments:
[1] = compound: CN1CCN(c2nc(C3=C(c4c[nH]c5ccccc45)C(=O)NC3=O)c3ccccc3n2)CC1 [SOTRASTAURIN/AEB071]; assay: surviving fraction relative to DMSO-only wells; higher = less growth inhibition; conditions: exposure time: 5 days
In short: (§1)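 Surviving fraction was calculated by normalising CellTiter-Glo luminescence to the median of DMSO-only wells. Tumour cell lines in log phase were seeded in 384-well plates at 250–500 cells per well, and 24 hours later were exposed continuously for five days to inhibitors at 0.5, 1, 5, 10, 50, 100, 500 and 1000 nM.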

[2] = compound: CNCc1ccc(-c2[nH]c3cc(F)cc4c3c2CCNC4=O)cc1; assay: as above; conditions: exposure time: 5 days
In short: as §1

Test System | surviving fraction ([1]; 0.5 nM) | surviving fraction ([1]; 1 nM) | surviving fraction ([1]; 5 nM) | surviving fraction ([1]; 10 nM) | surviving fraction ([1]; 50 nM) | surviving fraction ([1]; 100 nM) | surviving fraction ([1]; 500 nM) | surviving fraction ([1]; 1000 nM) | surviving fraction ([2]; 0.5 nM) | surviving fraction ([2]; 1 nM) | surviving fraction ([2]; 5 nM) | surviving fraction ([2]; 10 nM) | surviving fraction ([2]; 50 nM) | surviving fraction ([2]; 100 nM) | surviving fraction ([2]; 500 nM) | surviving fraction ([2]; 1000 nM)
HCC1395 BREAST | 0.996 ± 0.018 | 1.09 ± 0.058 | 1.16 ± 0.12 | 1.12 ± 0.15 | 1.19 ± 0.13 | 1.1 ± 0.1 | 0.885 ± 0.14 | 0.969 ± 0.075 | 0.901 ± 0.016 | 0.981 ± 0.02 | 1.09 ± 0.011 | 0.92 ± 0.058 | 0.873 ± 0.12 | 0.828 ± 0.071 | 0.736 ± 0.041 | 0.809 ± 0.028
HCC1806 BREAST | 0.958 ± 0.19 | 0.944 ± 0.041 | 1.17 ± 0.078 | 1.08 ± 0.017 | 0.887 ± 0.026 | 1.01 ± 0.096 | 0.9673 ± 0.0067 | 0.908 ± 0.066 | 1.05 ± 0.074 | 0.879 ± 0.021 | 1.02 ± 0.024 | 1.07 ± 0.094 | 0.77 ± 0.076 | 0.74 ± 0.09 | 0.601 ± 0.046 | 0.521 ± 0.026
HCC1954 BREAST | 1.1 ± 0.09 | 1.1 ± 0.08 | 1.2 ± 0.11 | 1.19 ± 0.27 | 0.63 ± 0.2 | 0.682 ± 0.12 | 0.502 ± 0.072 | 0.674 ± 0.16 | 0.795 ± 0.12 | 0.797 ± 0.11 | 0.947 ± 0.039 | 1.04 ± 0.17 | 0.61 ± 0.082 | 0.549 ± 0.019 | 0.557 ± 0.0088 | 0.464 ± 0.012
HCT15 LARGE INTESTINE | 1.03 ± 0.12 | 1.07 ± 0.024 | 1.05 ± 0.053 | 1.02 ± 0.081 | 1.05 ± 0.054 | 1.05 ± 0.061 | 1.02 ± 0.079 | 1.05 ± 0.069 | 1.03 ± 0.075 | 1.01 ± 0.16 | 1.05 ± 0.13 | 1.05 ± 0.051 | 0.982 ± 0.1 | 0.988 ± 0.093 | 0.996 ± 0.095 | 1.03 ± 0.13
HELA CERVIX | 1.03 ± 0.029 | 1.05 ± 0.052 | 1.05 ± 0.072 | 0.974 ± 0.043 | 1.14 ± 0.15 | 1.15 ± 0.063 | 1.11 ± 0.057 | 1.12 ± 0.092 | 1.09 ± 0.093 | 1.09 ± 0.08 | 1.08 ± 0.054 | 1.03 ± 0.07 | 1.16 ± 0.11 | 1.12 ± 0.16 | 1.14 ± 0.079 | 1.09 ± 0.071
HOS BONE | 1.021 ± 0.0061 | 1.01 ± 0.014 | 1.04 ± 0.023 | 1.014 ± 0.008 | 1.05 ± 0.014 | 1.03 ± 0.013 | 1.02 ± 0.018 | 0.974 ± 0.016 | 1.02 ± 0.017 | 1.05 ± 0.034 | 1.01 ± 0.015 | 1.029 ± 0.01 | 1.01 ± 0.023 | 0.994 ± 0.022 | 1.02 ± 0.019 | 0.9833 ± 0.0055
HOSMNG BONE | 0.939 ± 0.079 | 0.932 ± 0.025 | 0.994 ± 0.035 | 0.947 ± 0.047 | 1.05 ± 0.12 | 0.963 ± 0.028 | 1.11 ± 0.061 | 1.01 ± 0.05 | 0.936 ± 0.055 | 0.988 ± 0.083 | 0.94 ± 0.14 | 0.857 ± 0.03 | 0.838 ± 0.032 | 0.885 ± 0.089 | 0.929 ± 0.11 | 0.954 ± 0.045
HSSYII SYNOVIAL | 0.909 ± 0.02 | 0.985 ± 0.084 | 0.984 ± 0.022 | 0.98 ± 0.02 | 0.87 ± 0.069 | 0.83 ± 0.065 | 0.833 ± 0.015 | 0.839 ± 0.039 | 0.918 ± 0.023 | 0.915 ± 0.074 | 0.881 ± 0.028 | 0.861 ± 0.027 | 0.696 ± 0.055 | 0.653 ± 0.041 | 0.473 ± 0.05 | 0.343 ± 0.021
HT1080 SOFT TISSUE | 1.07 ± 0.028 | 1.08 ± 0.024 | 1.053 ± 0.0085 | 1.05 ± 0.021 | 1.03 ± 0.025 | 1.04 ± 0.016 | 1.07 ± 0.019 | 1.16 ± 0.063 | 1.04 ± 0.019 | 1.01 ± 0.014 | 0.983 ± 0.04 | 0.968 ± 0.018 | 0.899 ± 0.018 | 0.869 ± 0.037 | 0.818 ± 0.047 | 0.671 ± 0.068
HU09 BONE | 0.957 ± 0.092 | 1.03 ± 0.088 | 1.08 ± 0.075 | 1.1 ± 0.075 | 0.898 ± 0.085 | 0.929 ± 0.11 | 0.851 ± 0.026 | 0.925 ± 0.11 | 1.04 ± 0.068 | 0.977 ± 0.052 | 1.04 ± 0.072 | 0.991 ± 0.066 | 0.965 ± 0.24 | 0.889 ± 0.13 | 0.757 ± 0.051 | 0.669 ± 0.074
